Measurements from publication PMC6629894, “Ruthenium Complexes Containing Heterocyclic Thioamidates Trigger Caspase-Mediated Apoptosis Through MAPK Signaling in Human Hepatocellular Carcinoma Cells” (Frontiers in Oncology, 2019).
pIC50: −log10 of the molar value. “Also recorded” adds a separate entry of the source. Read-outs that look alike come from different tables or passages of the source. Marks after values point to notes of the source that are not given here.

Assays:
B16-F10 (mouse melanoma) = assay: Alamar blue cytotoxicity assay, 72 h; format: cell-based
Description: (§1) The cell lines HepG2 (human hepatocellular carcinoma), HL-60 (human promyelocytic leukemia), K-562 (human chronic myelogenous leukemia), B16-F10 (mouse melanoma), MCF-7 (human breast carcinoma), HCT116 (human colon carcinoma), HSC-3 (human oral squamous cell carcinoma), SCC-4 (human oral squamous cell carcinoma), MRC-5 (human lung fibroblast), WT SV40 MEF (wild-type immortalized mouse embryonic fibroblast), and BAD KO SV40 MEF (BAD gene knockout immortalized mouse embryonic fibroblasts) were obtained from the American Type Culture Collection (ATCC, Manassas, VA, USA). Cells were cultured in RPMI 1640 medium (Gibco-BRL, Gaithersburg, MD, USA) with 10% fetal bovine serum (Life, Carlsbad, CA, USA), 2 mM L-glutamine (Vetec Química Fina, Duque de Caxias, RJ, Brazil) and 50 μg/mL gentamycin (Life). For all experiments, adherent cells were collected by treatment with 0.25% trypsin-EDTA solution (Gibco-BRL). All cell lines were cultured in flasks at 37°C in 5% CO2 and were subcultured every 3–4 days to maintain exponential growth. All cell lines were tested for mycoplasma using a mycoplasma staining kit (Sigma-Aldrich Co.) to validate that the cells that were used were free from contamination.
(§2) Cytotoxicity was measured colorimetrically using an Alamar blue method that was performed as previously described ([20], [21]). Cells were seeded in 96-well plates for all experiments (7 × 10^4 cells/mL for adherent cells or 3 × 10^5 cells/mL for suspension cells in 100 μL of medium) and incubated overnight at 37°C with 5% CO2 to allow for adherence. The complexes were dissolved in 0.5% dimethyl sulfoxide (DMSO, Vetec Química Fina) at eight different concentrations from 0.19 to 25 μg/mL and were added to each well and incubated for 72 h. The negative control was treated with the vehicle (0.5% DMSO) that was used to solubilize and dilute the complexes. […] Four (for cell lines) or 24 h (for PBMCs) before the end of incubation, 20 μL of a stock solution (0.312 mg/mL) of resazurin (Sigma-Aldrich Co.) was added to each well. Absorbance was measured at 570 and 600 nm using a SpectraMax 190 Microplate Reader (Molecular Devices, Sunnyvale, CA, USA).

[1] = tested on: K-562 (human chronic myelogenous leukemia); assay: Alamar blue cytotoxicity assay, 72 h; format: cell-based
Description: as §1, §2

[2] = tested on: multicellular spheroids formed from HepG2 cells; assay: 3D multicellular spheroid culture, Alamar blue, 72 h; format: cell-based, human; conditions: read-out: IC50 and 95% CI, 3D HepG2 spheroids
Protocol: HepG2 cells were cultivated as 3D multicellular spheroids in a 96-well plate with a cell-repellent surface. Briefly, 100 μL of a suspension of cells (5 × 10^5 cells/mL) was seeded into a 96-well plate with a cell-repellent surface (Greiner Bio-One, Kremsmünster, Austria) and cultured in RPMI 1640 medium with 10% fetal bovine serum, 2 mM glutamine plus 3% Matrigel (BD Biosciences, San Jose, CA, EUA) and 50 μg/mL gentamycin at 37°C with 5% CO2. Spheroids with stable structures formed after 3 days. Then, the complexes were dissolved in 0.5% DMSO at eight different concentrations from 0.19 to 25 μg/mL, were added to each well and incubated for 72 h. […] At the end of the experiment, morphological changes were examined by light microscopy (Olympus BX41, Tokyo, Japan) using Image-Pro software (Media Cybernetics, Inc. Silver Spring, USA), and cytotoxicity was quantified with the Alamar blue method as described above.

[3] = tested on: WT SV40 MEF (wild-type immortalized mouse embryonic fibroblast); assay: Alamar blue cytotoxicity assay, 72 h; format: cell-based; conditions: read-out: IC50 and 95% CI
[4] = tested on: BAD KO SV40 MEF (BAD gene knockout immortalized mouse embryonic fibroblasts); assay: Alamar blue cytotoxicity assay, 72 h; format: cell-based; conditions: read-out: IC50 and 95% CI
HepG2 cells = assay: Trypan blue exclusion assay; format: cell-based, human
Protocol: For all subsequent in vitro experiments, 2 mL of a suspension of HepG2 cells were seeded (7 × 10^4 cells/mL) and incubated in a 24-well plate overnight to allow the cells to adhere to the plate surface.
In the trypan blue exclusion assay, the number of viable cells and non-viable cells (stained with trypan blue) were counted. Briefly, 90 μL was removed from the cell suspension, and 10 μL of trypan blue (0.4%) was added. Cell counting was performed using a light microscope with a hemocytometer filled with an aliquot of the homogenized cell suspension.

calf thymus DNA (ctDNA) = assay: DNA interaction assay (ethidium bromide displacement); format: binding
Protocol: DNA interaction was measured in a cell-free system as previously described ([22]). In this assay, the ability of the complexes to translocate ethidium bromide, a DNA intercalator, from calf thymus DNA (ctDNA, Sigma-Aldrich Co.) was examined. […] […] After a 15 min incubation at room temperature, fluorescence was measured using the excitation and emission wavelengths of 320 and 600 nm, respectively, using a Spectramax Microplate Reader (Molecular Devices).

[5] = tested on: HepG2 cells engrafted in C.B-17 SCID mice; assay: Human hepatocellular carcinoma xenograft model; format: in vivo; conditions: for mean tumor mass: 21 days (negative control 0.6 ± 0.1 g)
Protocol: A total of 64 C.B-17 severe-combined immunodeficiency (SCID) mice (females, 25–30 g) were obtained and maintained at the animal facilities from Gonçalo Moniz Institute-FIOCRUZ (Salvador, Bahia, Brazil). Animals were housed in cages with free access to food and water. All animals were kept under a 12:12-h light-dark cycle (lights on at 6:00 a.m.). The animals were treated according to the ethical principles for animal experimentation of SBCAL (Brazilian Association of Laboratory Animal Science), Brazil. The Animal Ethics Committee of Gonçalo Moniz Institute–FIOCRUZ (Salvador, Bahia, Brazil) approved the experimental protocol (number 06/2015). Animal welfare was monitored throughout the study, and the pain and suffering were minimized.

[6] = for Differential leukocytes: Eosinophils / Differential leukocytes: Lymphocytes / Differential leukocytes: Monocytes / Differential leukocytes: Neutrophils / Erythrocytes / Total leukocytes: peripheral blood
Protocol: A human hepatocellular carcinoma xenograft model was generated by subcutaneously implanting HepG2 cells (1 × 10^7 cells per 500 μL) into the left front armpit of C.B-17 SCID mice. […] The treatments were initiated one day after the cancer cell injection. The animals were treated intraperitoneally (200 μL per animal) once a day for 21 consecutive days. On the 22nd day, the animals were anesthetized, and peripheral blood samples were collected from the brachial artery. Animals were euthanized by an anesthetic overdose, and tumors were excised and weighed.
To evaluate the toxicological aspects, mice were weighed at the beginning and at the end of the experiment. […] Hematological analysis was performed using an Advia 60 hematology system (Bayer, Leverkusen, Germany).

[7] = 0.5 and 1 mg/kg/day i.p., 21 days

F[P-](F)(F)(F)(F)F.[Ru+2].[S-]C1=NCCS1.c1ccc(-c2ccccn2)nc1.c1ccc(P(CCCCP(c2ccccc2)c2ccccc2)c2ccccc2)cc1 [Complex 2, [Ru(tzdt)(bipy)(dppb)]PF6]
Selectivity index (SI = IC50 [noncancerous cells]/IC50 [cancer cells]) (B16-F10 (mouse melanoma); MRC-5 vs B16-F10): 1.2 | Selectivity index (SI = IC50 [noncancerous cells]/IC50 [cancer cells]) (B16-F10 (mouse melanoma); PBMCs vs B16-F10): 2.0 | Selectivity index (SI = IC50 [noncancerous cells]/IC50 [cancer cells]) ([1]; MRC-5 vs K-562): 1.8 | Selectivity index (SI = IC50 [noncancerous cells]/IC50 [cancer cells]) ([1]; PBMCs vs K-562): 2.9 | pIC50 ([1]; read-out: IC50 and 95% CI, K-562, 72 h): 6.05 | pIC50 [2]: 5.14 | pIC50 [3]: 5.70 | pIC50 [4]: 5.54 | reduction of the number of viable cells vs negative control (HepG2 cells; 2 μM, 24 h): 42.1% | reduction of the number of viable cells vs negative control (HepG2 cells; 2 μM, 48 h): 67.3% | reduction of the number of viable cells vs negative control (HepG2 cells; 4 μM, 24 h): 58.6% | reduction of the number of viable cells vs negative control (HepG2 cells; 4 μM, 48 h): 93.1% | reduction of the fluorescence intensity (ethidium bromide-ctDNA) vs negative control (calf thymus DNA (ctDNA); 5 μM): 36.9% | reduction of the fluorescence intensity (ethidium bromide-ctDNA) vs negative control (calf thymus DNA (ctDNA); 10 μM): 42.9% | reduction of the fluorescence intensity (ethidium bromide-ctDNA) vs negative control (calf thymus DNA (ctDNA); 20 μM): 45.4% | mean tumor mass ([5]; 0.5 mg/kg/day i.p.): 0.3 ± 0.1 g | fibrosis in tumor histology ([5]; 1 mg/kg/day): most evident fibrosis | mean tumor mass ([5]; 1 mg/kg/day i.p.): 0.2 ± 0.1 g | tumor mass inhibition rates [5, 7]: 46.9–67.7% | Initial body weight ([6]; 0.5 mg/kg/day): 20.4 ± 0.4 g | Final body weight ([6]; 0.5 mg/kg/day i.p., 21 days): 20.8 ± 0.4 g | Heart relative weight ([6]; 0.5 mg/kg/day i.p., 21 days): 0.6 ± 0.1 g/100 g body weight | Kidney relative weight ([6]; 0.5 mg/kg/day i.p., 21 days): 1.5 ± 0.1 g/100 g body weight | Liver relative weight ([6]; 0.5 mg/kg/day i.p., 21 days): 4.7 ± 0.2 g/100 g body weight | Lung relative weight ([6]; 0.5 mg/kg/day i.p., 21 days): 0.8 ± 0.1 g/100 g body weight | Survival ([6]; 0.5 mg/kg/day i.p., 21 days): 10/10 | Initial body weight ([6]; 1 mg/kg/day): 19.9 ± 0.5 g | Final body weight ([6]; 1 mg/kg/day i.p., 21 days): 19.4 ± 0.5 g | Heart relative weight ([6]; 1 mg/kg/day i.p., 21 days): 0.6 ± 0.1 g/100 g body weight | Kidney relative weight ([6]; 1 mg/kg/day i.p., 21 days): 1.5 ± 0.1 g/100 g body weight | Liver relative weight ([6]; 1 mg/kg/day i.p., 21 days): 4.6 ± 0.1 g/100 g body weight | Lung relative weight ([6]; 1 mg/kg/day i.p., 21 days): 0.8 ± 0.1 g/100 g body weight | Survival ([6]; 1 mg/kg/day i.p., 21 days): 10/10 | hepatotoxicity: focal areas of coagulation necrosis in the liver (histology) [6, 7]: more evident; also recorded: evidence of hepatotoxicity | Differential leukocytes: Eosinophils ([6]; 0.5 mg/kg/day, 21 days): 1.3% | Differential leukocytes: Lymphocytes ([6]; 0.5 mg/kg/day, 21 days): 39.9% | Differential leukocytes: Monocytes ([6]; 0.5 mg/kg/day, 21 days): 39.1% | Differential leukocytes: Neutrophils ([6]; 0.5 mg/kg/day, 21 days): 21.1% | Erythrocytes ([6]; 0.5 mg/kg/day, 21 days): 8.5 ± 1.0 10^6cells/μL | Total leukocytes ([6]; 0.5 mg/kg/day, 21 days): 2.5 ± 0.4 10^3cells/μL | Differential leukocytes: Eosinophils ([6]; 1 mg/kg/day, 21 days): 1.1% | Differential leukocytes: Lymphocytes ([6]; 1 mg/kg/day, 21 days): 32.2% | Differential leukocytes: Monocytes ([6]; 1 mg/kg/day, 21 days): 32.5% | Differential leukocytes: Neutrophils ([6]; 1 mg/kg/day, 21 days): 34.4% | Erythrocytes ([6]; 1 mg/kg/day, 21 days): 7.8 ± 0.8 10^6cells/μL | Total leukocytes ([6]; 1 mg/kg/day, 21 days): 2.7 ± 0.4 10^3cells/μL

COc1cccc2c1C(=O)c1c(O)c3c(c(O)c1C2=O)C[C@@](O)(C(=O)CO)C[C@@H]3O[C@H]1C[C@H](N)[C@H](O)[C@H](C)O1 [Doxorubicin, reference compound]
Selectivity index (SI = IC50 [noncancerous cells]/IC50 [cancer cells]) (B16-F10 (mouse melanoma); MRC-5 vs B16-F10): 2.0 | pIC50 (B16-F10 (mouse melanoma); Mus musculus, B16-F10, 72 h, read-out: IC50 and 95% CI): 6.70 | Selectivity index (SI = IC50 [noncancerous cells]/IC50 [cancer cells]) (B16-F10 (mouse melanoma); PBMCs vs B16-F10): 12.5 | Selectivity index (SI = IC50 [noncancerous cells]/IC50 [cancer cells]) ([1]; MRC-5 vs K-562): 0.4 | Selectivity index (SI = IC50 [noncancerous cells]/IC50 [cancer cells]) ([1]; PBMCs vs K-562): 2.8 | pIC50 ([2]; Homo sapiens): 4.99 | pIC50 ([3]; Mus musculus, Fibroblast): 7.40 | pIC50 ([4]; Mus musculus, Fibroblast): 6.40 | reduction of the number of viable cells vs negative control (HepG2 cells; 2 μM, 24 h): 53.1% | reduction of the number of viable cells vs negative control (HepG2 cells; 2 μM, 48 h): 74.7% | reduction of the fluorescence intensity (ethidium bromide-ctDNA) vs negative control (calf thymus DNA (ctDNA); 20 μM): 89.0% | reduction of tumor weight vs negative control ([5]; 0.3 mg/kg/day i.p., 21 days): 36.8% | Initial body weight ([6]; 0.3 mg/kg/day): 22.3 ± 0.4 g | Final body weight ([6]; 0.3 mg/kg/day i.p., 21 days): 19.5 ± 0.6 g | Heart relative weight ([6]; 0.3 mg/kg/day i.p., 21 days): 0.5 ± 0.02 g/100 g body weight | Kidney relative weight ([6]; 0.3 mg/kg/day i.p., 21 days): 1.5 ± 0.04 g/100 g body weight | Liver relative weight ([6]; 0.3 mg/kg/day i.p., 21 days): 4.8 ± 0.1 g/100 g body weight | Lung relative weight ([6]; 0.3 mg/kg/day i.p., 21 days): 0.9 ± 0.06 g/100 g body weight | Differential leukocytes: Eosinophils ([6]; 0.3 mg/kg/day, 21 days): 1.0% | Differential leukocytes: Lymphocytes ([6]; 0.3 mg/kg/day, 21 days): 49.3% | Differential leukocytes: Monocytes ([6]; 0.3 mg/kg/day, 21 days): 1.0% | Differential leukocytes: Neutrophils ([6]; 0.3 mg/kg/day, 21 days): 48.8% | Erythrocytes ([6]; 0.3 mg/kg/day, 21 days): 8.9 ± 0.7 10^6cells/μL | Total leukocytes ([6]; 0.3 mg/kg/day, 21 days): 1.5 ± 0.2* 10^3cells/μL
